27 compounds from patent US20210261512A1, “NOVEL COMPOUNDS” (INFLAZOME LIMITED, priority 2018, published 2021) can be followed below.

Molecules are shown by their SMILES.

This test addresses NLRP3 (Homo sapiens, UniProt Q96P20). The test can be described thus: THP-1 cells pyroptosis assay. In kind it is cell-based. Set-up: Seed THP-1 cells (25,000 cells/well) containing 1.0 μg/ml LPS; host or cells: THP-1. The conditions noted are these: LPS 1.0 μg/ml, nigericin 5 μM, resazurin readout, 10 μM top dose (Example 2: top dose of 30 μM). As to the method:
THP-1 cells (ATCC #TIB-202) were grown in RPMI containing L-glutamine (Gibco #11835) supplemented with imM sodium pyruvate (Sigma #S8636) and penicillin (100 units/ml)/streptomycin (0.1 mg/ml) (Sigma #P4333) in 10% Fetal Bovine Serum (FBS) (Sigma #F0804). The cells were routinely passaged and grown to confluency (˜10^6 cells/ml). On the day of the experiment, THP-1 cells were harvested and resuspended into RPMI medium (without FBS). The cells were then counted and viability (>90%) checked by Trypan blue (Sigma #T8154). Appropriate dilutions were made to give a concentration of 625,000 cells/ml. To this diluted cell solution was added LPS (Sigma #L4524) to give a 1 μg/ml Final Assay Concentration (FAC). 40 μl of the final preparation was aliquoted into each well of a 96-well plate. The plate thus prepared was used for compound screening.
The following method step-by-step assay was followed for compound screening. • 1. Seed THP-1 cells (25,000 cells/well) containing 1.0 μg/ml LPS in 40 μl of RPMI medium (without FBS) in 96-well, black walled, clear bottom cell culture plates coated with poly-D-lysine (VWR #734-0317) • 2. Add 5 μl compound (8 points four-fold dilution or 8 points half-log dilution, with 10 μM top dose, unless stated otherwise) or vehicle (DMSO 0.1% FAC) to the appropriate wells • 3. Incubate for 3 hrs at 37° C. and 5% CO2 • 4. Add 5 μl nigericin (Sigma #N7143) (FAC 5 μM) to all wells • 5. Incubate for 1 hr at 37° C. and 5% CO2 • 6. At the end of the incubation period, spin plates at 300×g for 3 mins and remove supernatant • 7. Then add 50 μl of resazurin (Sigma #R^7017) (FAC 100 μM resazurin in RPMI medium without FBS) and incubate plates for a further 1-2 hrs at 37° C. and 5% CO2 • 8. Plates were read in an Envision reader at Ex 560 nm and Em 590 nm • 9. IC50 data is fitted to a non-linear regression equation (log inhibitor vs response-variable slope 4-parameters)

As a reminder, the IC50 is the concentration at which inhibition is half-maximal. The low end stands for greater potency, the high end for weaker potency.

Chain of NLRP3 (Q96P20 whole entry): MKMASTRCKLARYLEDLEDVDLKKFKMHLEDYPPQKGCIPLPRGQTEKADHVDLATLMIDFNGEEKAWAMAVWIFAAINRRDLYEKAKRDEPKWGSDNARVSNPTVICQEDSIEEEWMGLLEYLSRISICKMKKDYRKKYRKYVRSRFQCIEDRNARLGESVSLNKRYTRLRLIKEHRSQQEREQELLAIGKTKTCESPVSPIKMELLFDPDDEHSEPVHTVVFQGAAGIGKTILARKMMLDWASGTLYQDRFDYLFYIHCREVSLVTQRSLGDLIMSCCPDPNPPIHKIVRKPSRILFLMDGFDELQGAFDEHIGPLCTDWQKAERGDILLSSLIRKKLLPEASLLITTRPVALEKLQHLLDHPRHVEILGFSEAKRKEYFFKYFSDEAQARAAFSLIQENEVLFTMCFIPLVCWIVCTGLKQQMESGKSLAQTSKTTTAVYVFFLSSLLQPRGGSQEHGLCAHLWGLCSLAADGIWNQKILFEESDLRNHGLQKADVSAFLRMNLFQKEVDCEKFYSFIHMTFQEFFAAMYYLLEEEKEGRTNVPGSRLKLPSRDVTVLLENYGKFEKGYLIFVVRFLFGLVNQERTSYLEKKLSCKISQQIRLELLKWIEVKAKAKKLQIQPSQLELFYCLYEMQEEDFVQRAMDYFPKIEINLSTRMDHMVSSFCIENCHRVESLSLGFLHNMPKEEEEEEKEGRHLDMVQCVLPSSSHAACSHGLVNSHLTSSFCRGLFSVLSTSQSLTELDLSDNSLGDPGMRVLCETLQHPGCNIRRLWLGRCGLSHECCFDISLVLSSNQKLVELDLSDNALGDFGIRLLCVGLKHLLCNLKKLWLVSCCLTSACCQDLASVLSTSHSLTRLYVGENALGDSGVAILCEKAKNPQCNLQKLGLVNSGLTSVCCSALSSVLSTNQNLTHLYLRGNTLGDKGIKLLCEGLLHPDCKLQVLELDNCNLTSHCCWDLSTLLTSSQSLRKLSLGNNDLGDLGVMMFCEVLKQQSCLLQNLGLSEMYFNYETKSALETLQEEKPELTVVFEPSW

In the case of `COC(C)(C)C1CCN(S(=O)(=O)c2nnc(Nc3c4c(cc5c3CCC5)CCC4)[nH]2)C1` (stereo not drawn) [Example 282, N-(1,2,3,5,6,7-hexahydro-s-indacen-4-yl)-5-((3-(2-methoxypropan-2-yl)pyrrolidin-1-yl)sulfonyl)-4H-1,2,4-triazol-3-amine], the IC50 was not above 5 µM.

The compound `O=S(=O)(NCc1ccncc1)c1nnc(Nc2c3c(cc4c2CCC4)CCC3)[nH]1` [Example 96, 5-((1,2,3,5,6,7-hexahydro-s-indacen-4-yl)amino)-N-(pyridin-4-ylmethyl)-4H-1,2,4-triazole-3-sulfonamide] had an IC50 not above 5 µM. `CN(C)C1CCC(Oc2cc(-c3ccc4c(c3Nc3nnc(S(C)(=O)=O)[nH]3)CCC4)ccn2)CC1` (stereo not drawn) [Example 356, N-(5-(2-((4-(dimethylamino)cyclohexyl)oxy)pyridin-4-yl)-2,3-dihydro-1H-inden-4-yl)-5-(methylsulfonyl)-4H-1,2,4-triazol-3-amine]: the IC50 is not above 5 µM. In turn, `CN(C)C(=O)Cn1cc(S(=O)(=O)c2nnc(Nc3c4c(cc5c3CCC5)CCC4)[nH]2)cn1` [Example 348, 2-(4-((5-((1,2,3,5,6,7-hexahydro-s-indacen-4-yl)amino)-4H-1,2,4-triazol-3-yl)sulfonyl)-1H-pyrazol-1-yl)-N,N-dimethylacetamide] had an IC50 not above 5 µM.

`Cc1noc(CS(=O)(=O)c2nnc(Nc3c4c(cc5c3CCC5)CCC4)[nH]2)n1` [Example 70, N-(1,2,3,5,6,7-hexahydro-s-indacen-4-yl)-3-(((3-methyl-1,2,4-oxadiazol-5-yl)methyl)sulfonyl)-1H-1,2,4-triazol-5-amine] yielded an IC50 not above 5 µM. The compound `CN(C)CC1CCN(S(=O)(=O)c2nnc(Cc3c4c(cc5c3CCC5)CCC4)[nH]2)C1` (stereo not drawn) [Example 158, 1-(1-((5-((1,2,3,5,6,7-hexahydro-s-indacen-4-yl)methyl)-4H-1,2,4-triazol-3-yl)sulfonyl)pyrrolidin-3-yl)-N,N-dimethylmethanamine] gave an IC50 not above 5 µM.

Turning to `O=S(=O)(CCCNC1CC1)c1nnc(Nc2c3c(cc4c2CCC4)CCC3)[nH]1` [Example 56, 5-((3-(cyclopropylamino)propyl)sulfonyl)-N-(1,2,3,5,6,7-hexahydro-s-indacen-4-yl)-4H-1,2,4-triazol-3-amine], the half-inhibitory concentration (IC50) is not above 5 µM. The figure for `CNC(=O)C1CCN(S(=O)(=O)c2nnc(Nc3c4c(cc5c3CCC5)CCC4)[nH]2)C1` (stereo not drawn) [Example 140, 1-((5-((1,2,3,5,6,7-hexahydro-s-indacen-4-yl)amino)-4H-1,2,4-triazol-3-yl)sulfonyl)-N-methylpyrrolidine-3-carboxamide] is not above 5 µM. With `CN(C)C1CCN(S(=O)(=O)c2nnc(Nc3c4c(c(C#N)c5c3CCC5)CCC4)[nH]2)CC1` [Example 223, 8-((5-((4-(dimethylamino)piperidin-1-yl)sulfonyl)-4H-1,2,4-triazol-3-yl)amino)-1,2,3,5,6,7-hexahydro-s-indacene-4-carbonitrile], the IC50 was not above 5 µM. The figure for `CN1CC2CCN(S(=O)(=O)c3nnc(Nc4c5c(cc6c4CCC6)CCC5)[nH]3)C2C1` (stereo not drawn) [Example 142, N-(1,2,3,5,6,7-hexahydro-s-indacen-4-yl)-5-((5-methylhexahydropyrrolo[3,4-b]pyrrol-1 (2H)-yl)sulfonyl)-4H-1,2,4-triazol-3-amine] is not above 5 µM; for `O=S(=O)(c1cccc(OC(F)(F)F)c1)c1nnc(Nc2c3c(cc4c2CCC4)CCC3)[nH]1` [Example 367, N-(1,2,3,5,6,7-hexahydro-s-indacen-4-yl)-5-((3-(trifluoromethoxy)phenyl)-sulfonyl)-4H-1,2,4-triazol-3-amine] it is not above 5 µM; for `CC(C)c1cc(F)cc(C(C)C)c1Cc1nnc(S(=O)(=O)N2CCC(CN(C)C)C2)[nH]1` (stereo not drawn) [Example 161, 1-(1-((5-(4-fluoro-2,6-diisopropylbenzyl)-4H-1,2,4-triazol-3-yl)-sulfonyl)pyrrolidin-3-yl)-N,N-dimethylmethanamine] it is not above 5 µM. With `N#Cc1cccc(S(=O)(=O)c2nnc(Nc3c4c(cc5c3CCC5)CCC4)[nH]2)c1` [Example 188, 3-((5-((1,2,3,5,6,7-hexahydro-s-indacen-4-yl)amino)-4H-1,2,4-triazol-3-yl)sulfonyl)benzonitrile], the IC50 was not above 5 µM. As for `Cc1cc2c(c(Nc3nnc(S(C)(=O)=O)[nH]3)c1-c1ccnc(OC3CCOCC3)c1)CCC2` [Example 364, N-(6-methyl-5-(2-((tetrahydro-2H-pyran-4-yl)oxy)pyridin-4-yl)-2,3-dihydro-1H-inden-4-yl)-5-(methylsulfonyl)-4H-1,2,4-triazol-3-amine], the IC50 is not above 5 µM. The value for `Cc1ccccc1S(=O)(=O)c1nnc(Nc2c3c(cc4c2CCC4)CCC3)[nH]1` [Example 187, N-(1,2,3,5,6,7-hexahydro-s-indacen-4-yl)-5-(o-tolylsulfonyl)-4H-1,2,4-triazol-3-amine] was not above 1 µM; that for `O=S(=O)(CC1CCOC1)c1nnc(Nc2c3c(cc4c2CCC4)CCC3)[nH]1` (stereo not drawn) [Example 66, N-(1,2,3,5,6,7-hexahydro-s-indacen-4-yl)-3-(((tetrahydrofuran-3-yl)methyl)sulfonyl)-1H-1,2,4-triazol-5-amine] was not above 10 µM.

In the case of `CN(C)c1cccc(CS(=O)(=O)c2nnc(Nc3c4c(cc5c3CCC5)CCC4)[nH]2)c1` [Example 74, 3-((3-(dimethylamino)benzyl)sulfonyl)-N-(1,2,3,5,6,7-hexahydro-s-indacen-4-yl)-1H-1,2,4-triazol-5-amine], the IC50 is not above 5 µM. Compound `O=S(=O)(c1ccn(CCO)n1)c1nnc(Nc2c3c(cc4c2CCC4)CCC3)[nH]1` [Example 334, 2-(3-((5-((1,2,3,5,6,7-hexahydro-s-indacen-4-yl)amino)-4H-1,2,4-triazol-3-yl)sulfonyl)-1H-pyrazol-1-yl)ethanol] returned an IC50 not above 1 µM. As to `CN1CCCC1CS(=O)(=O)c1nnc(Nc2c3c(cc4c2CCC4)CCC3)[nH]1` (stereo not drawn) [Example 61, N-(1,2,3,5,6,7-hexahydro-s-indacen-4-yl)-3-(((1-methylpyrrolidin-2-yl)methyl)sulfonyl)-1H-1,2,4-triazol-5-amine], the IC50 was not above 10 µM. Turning to `O=S(=O)(c1nnc(Nc2c3c(cc4c2CCC4)CCC3)[nH]1)N1CCC2(CCNC2)CC1` [Example 266, 5-((2,8-diazaspiro[4.5]decan-8-yl)sulfonyl)-N-(1,2,3,5,6,7-hexahydro-s-indacen-4-yl)-4H-1,2,4-triazol-3-amine], the IC50 is not above 5 µM. For the compound `COc1cc(-c2ccc3c(c2Nc2nnc(S(=O)(=O)c4ccccc4)[nH]2)CCO3)ccn1` [Example 190, N-(5-(2-methoxypyridin-4-yl)-2,3-dihydrobenzofuran-4-yl)-5-(phenylsulfonyl)-4H-1,2,4-triazol-3-amine], the IC50 was not above 5 µM. The value for `CN1CCC(NS(=O)(=O)c2nnc(Nc3c4c(cc5c3CCC5)CCC4)[nH]2)CC1` [Example 102, 5-((1,2,3,5,6,7-hexahydro-s-indacen-4-yl)amino)-N-(1-methylpiperidin-4-yl)-4H-1,2,4-triazole-3-sulfonamide] was not above 10 µM; that for `CN(C)S(=O)(=O)c1nnc(Nc2c3c(cc4c2CCC4)CCC3)[nH]1` [Example 262, 5-((1,2,3,5,6,7-hexahydro-s-indacen-4-yl)amino)-N,N-dimethyl-4H-1,2,4-triazole-3-sulfonamide] was not above 5 µM; that for `CS(=O)(=O)c1nnc(Nc2c(-c3ccnc(OC4CCNCC4)c3)ccc3c2CCC3)[nH]1` [Example 357, 5-(methylsulfonyl)-N-(5-(2-(piperidin-4-yloxy)pyridin-4-yl)-2,3-dihydro-1H-inden-4-yl)-4H-1,2,4-triazol-3-amine] was not above 10 µM. The figure for `O=S(=O)(c1nnc(Nc2c3c(cc4c2CCC4)CCC3)[nH]1)N1CC[C@H](CO)C1` [Example 284, (S)-(1-((5-((1,2,3,5,6,7-hexahydro-s-indacen-4-yl)amino)-4H-1,2,4-triazol-3-yl)sulfonyl)pyrrolidin-3-yl)methanol] is not above 10 µM; for `CC(C)n1ncc(-c2ccncc2)c1Nc1nnc(S(=O)(=O)N2CCC(N(C)C)CC2)[nH]1` [Example 198, 1-((5-((1-isopropyl-4-(pyridin-4-yl)-1H-pyrazol-5-yl)amino)-4H-1,2,4-triazol-3-yl)sulfonyl)-N,N-dimethylpiperidin-4-amine] it is not above 10 µM.

In turn, `COc1ccc(S(=O)(=O)c2nnc(Nc3c4c(cc5c3CCC5)CCC4)[nH]2)cc1` [Example 183, N-(1,2,3,5,6,7-hexahydro-s-indacen-4-yl)-5-((4-methoxyphenyl)sulfonyl)-4H-1,2,4-triazol-3-amine] returned an IC50 not above 5 µM.
